From patent US10030016B2 (Sunesis Pharmaceuticals, Inc., priority 2009, dated 2018)
Counter-ions that a name gives are not always drawn. Like-named read-outs stand apart in the source and are kept apart here. Each block holds one compound with its values, some of them ahead of it.

Columns and labels:
[1] = molecular target: PDK1 (Homo sapiens (Human), UniProt O15530); test: PDK1 kinase assay (coupled PDK1/AKT/FAM-crosstide assay, IMAP fluorescence polarization); assay type: biochemical
How it was run: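 GST-tagged human PDK1 (aa 51-359, 0.75 nM) from insect cells activated unphosphorylated GST-AKT2 (aa 140-467–PIFtide fusion, 10 nM), which phosphorylated 100 nM FAM-crosstide; 40 μM ATP, pH 7.2 Tris/MgCl2, 30 min at 25° C. IMAP fluorescence polarization read-out; ΔmP versus compound concentration fitted with a 4-parameter curve.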

[2] = system: phospho-akt (Thr308) in PC-3 cells; test: Inhibition of phospho-akt (Thr308) in PC-3 cells, MSD phospho-akt 308 ELISA kit; assay type: cell-based; conditions: Homo sapiens, 2 hours, no serum, read-out: EC50
How it was run: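 PC-3 cells (15,000/well, overnight in 10% FBS medium) treated 2 h with three-fold diluted compounds in serum-free medium; DMSO high and 5 μM wortmannin low controls. Lysates captured on BSA-blocked MSD plates overnight at 4 °C, then 1 h antibody detection at RT; phospho-Akt Thr308 read by MSD electrochemiluminescence.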

[3] = inhibition of P308 Akt in PC-3 cells using MSD
[4] = inhibition of phospo-PDK1 in vitro
[5] = inhibition of P308 Akt in PC-3 cells, MSD

Sequence of PDK1 (O15530 51-359): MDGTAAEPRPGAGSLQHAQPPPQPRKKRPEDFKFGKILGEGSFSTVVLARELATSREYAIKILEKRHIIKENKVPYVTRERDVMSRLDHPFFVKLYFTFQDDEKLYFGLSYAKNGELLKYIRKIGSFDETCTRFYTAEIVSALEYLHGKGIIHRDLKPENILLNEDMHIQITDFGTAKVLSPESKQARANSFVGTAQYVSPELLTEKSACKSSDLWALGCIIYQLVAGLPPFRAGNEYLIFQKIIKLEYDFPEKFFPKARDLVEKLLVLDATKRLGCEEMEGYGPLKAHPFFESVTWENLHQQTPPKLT

SMILES: C[C@H](NC(=O)c1cc(C2=CCOC2)cnc1NCc1ccc(-c2cn(C)c3ncnc(N)c23)cc1)c1ccc(F)cc1 [Example 248, (S)-2-(4-(4-amino-7-methyl-7H-pyrrolo[2,3-d]pyrimidin-5-yl)benzylamino)-5-(2,5-dihydrofuran-3-yl)-N-(1-(4-fluorophenyl)ethyl) nicotinamide]
- IC50 ([1]; inhibition of PDK1 in vitro): < 100 nM
- EC50 [2, 3]: < 1000 nM

SMILES: C[C@H](NC(=O)c1cc(C#N)cnc1NCc1ccc(-c2cnc3[nH]ncc3c2)cc1)c1ccc(F)c(F)c1 [Example 395, 5-Cyano-N-[(S)-1-(3,4-difluoro-phenyl)-ethyl]-2-[4-(1H-pyrazolo[3,4-b]pyridin-5-yl)-benzylamino]-nicotinamide]
- IC50 ([1]; inhibition of PDK1 in vitro): < 100 nM
- EC50 [2, 3]: < 1000 nM

SMILES: C[C@H](NC(=O)c1cc(C#N)cnc1N[C@H](CC(=O)N(C)C)c1ccc(-c2c[nH]c3ncnc(N)c23)cc1)c1ccc(F)cc1 [Example 48, 2-((R)-1-(4-(4 - amino-7H-pyrrolo[2,3-d]pyrimidin-5-yl)phenyl)-3-(dimethylamino)-3-oxopropylamino)-5-cyano-N-((S)-1-(4-fluorophenyl)ethyl)nicotinamide]
- IC50 ([1]; inhibition of PDK1 in vitro): 100 to 1000 nM
- EC50 ([2]; PC-3, 2 h, inhibition of P308 Akt in PC-3 cells using MSD): 1000 to 10000 nM

SMILES: C[C@H](NC(=O)c1nc(C#N)cnc1NCc1ccc(-c2cn(CCCN)c3ncnc(N)c23)cc1)c1ccc(F)c(F)c1 [Example 318, (S)-3-(4-(4-amino-7-(3-aminopropyl)-7H-pyrrolo[2,3-d]pyrimidin-5-yl)benzylamino)-6-cyano-N-(1-(3,4-difluoro-phenyl)ethyl)pyrazine-2-carboxamide]
- IC50 ([1]; inhibition of PDK1 in vitro): < 100 nM
- EC50 [2, 3]: < 1000 nM

SMILES: C[C@H](NC(=O)c1cc(C#N)cnc1NCc1ccc(-c2cnc(N)c(CC3CCNC3)n2)cc1)c1ccc(F)cc1 (stereo partly drawn) [Example 185, 2-[4-(5-Amino-6-pyrrolidin-3-ylmethyl-pyrazin-2-yl)-benzylamino]-5-cyano-N-[(S)-1-(4-fluoro-phenyl)-ethyl]-nicotinamide]
- IC50 ([1]; inhibition of PDK1 in vitro): < 100 nM
- EC50 [2, 3]: < 1000 nM

SMILES: O=C(NCC1CCCC1)c1cccnc1NCc1ccc(-c2c[nH]c3ncccc23)s1 [Example 1.19, 2-(((5-(1H-pyrrolo[2,3-b]pyridin-3-yl)thiophen-2-yl)methyl)amino)-N-4-(cyclopentylmethyl) nicotinamide]
- IC50 [1, 4]: 1000 to 5000 nM
- EC50 [2, 5]: 1000 to 10000 nM

SMILES: C[C@H](NC(=O)c1nc(C#N)cnc1NCc1ccc(-c2cnc(N)c(N3CCNCC3)n2)cc1)c1ccc(F)c(F)c1 [Example 192, 3-[4-(3′-Amino-3,4,5,6-tetrahydro-2H-[1,2′]bipyrazinyl-6′-yl)-benzylamino]-6-cyano-pyrazine-2-carboxylic acid [(S)-1-(3,4-difluoro-phenyl)-ethyl]-amide]
- IC50 ([1]; inhibition of PDK1 in vitro): < 100 nM
- EC50 [2, 3]: 1000 to 10000 nM

SMILES: Nc1n[nH]c2ncc(-c3ccc(CNc4ncc(C(F)(F)F)cc4C(=O)Nc4ccc(F)cc4)cc3)nc12 [Example 184]
- IC50 ([1]; inhibition of PDK1 in vitro): < 100 nM
- EC50 [2, 3]: < 1000 nM

SMILES: C[C@H](NC(=O)c1cc(C#N)cnc1N[C@H](C)c1ccc(-c2cn(C)c3ncnc(N)c23)cc1)c1ccc(F)cc1 [Example 434, 2-{(R)-1-[4-(4-Amino-7-methyl-7H-pyrrolo[2,3-d]pyrimidin-5-yl)-phenyl]-ethylamino}-5-cyano-N-[(S)-1-(4-fluoro-phenyl)-ethyl]-nicotinamide]
- IC50 ([1]; inhibition of PDK1 in vitro): < 100 nM
- EC50 [2, 3]: < 1000 nM

SMILES: C[C@H](NC(=O)c1cc(C#N)cnc1NCc1ccc(-c2cnc(N)c(CCCN3CCOCC3)n2)cc1)c1ccc(F)cc1 [Example 88, 2-{4-[5-Amino-6-(3-morpholin-4-yl-propyl)-pyrazin-2-yl]-benzyl-amino}-5-cyano-N-[(S)-1-(4-fluoro-phenyl)-ethyl]-nicotinamide]
- IC50 ([1]; inhibition of PDK1 in vitro): < 100 nM
- EC50 [2, 3]: < 1000 nM

SMILES: N#Cc1cnc(NCc2ccc(-c3cnc4[nH]nc(N)c4c3)cc2)c(C(=O)NCc2ccc(F)c(F)c2)n1 [Example 31, 3-(4-(3-amino-1H-pyrazolo[3,4-b]pyridin-5-yl)benzylamino)-6-cyano-N-(3,4-difluorobenzyl) pyrazine-2-carboxamide]
- IC50 [1, 4]: < 100 nM
- EC50 [2, 5]: < 1000 nM

SMILES: C[C@H](NC(=O)c1nc(C#N)cnc1NCc1ccc(-c2cnc(N)c(O[C@H]3CCC[C@@H]3N)n2)cc1)c1ccc(F)c(F)c1 [Example 169, 3-{4-[5-Amino-6-((1S,2S)-2-amino-cyclopentyloxy)-pyrazin-2-yl]-benzylamino}-6-cyano-pyrazine-2-carboxylic acid [(S)-1-(3,4-difluoro-phenyl)-ethyl]-amide]
- IC50 ([1]; inhibition of PDK1 in vitro): < 100 nM
- EC50 [2, 3]: < 1000 nM

SMILES: O=C(NCc1ccc(F)c(F)c1)c1cccnc1NCCOc1ccc2c(c1)[nH]c1ncccc12 [Example 21, 2-(2-(9H-pyrido[2,3-b]indol-7-yloxy)ethylamino)-N-(3,4-difluorobenzyl)nicotinamide]
- IC50 [1, 4]: < 100 nM
- EC50 [2, 5]: 1000 to 10000 nM

SMILES: Nc1n[nH]c2ncc(-c3ccc(CNc4ncc(C(F)(F)F)cc4C(=O)NCc4ccc(F)c(F)c4)cc3)cc12 [Example 132, 2-(4-(3-amino-1H-pyrazolo [3,4-b]pyridin-5-yl)benzylamino)-N-(3,4-difluorobenzyl)-5-(trifluoromethyl) nicotinamide]
- IC50 ([1]; inhibition of PDK1 in vitro): < 100 nM
- EC50 [2, 3]: < 1000 nM

SMILES: C[C@H](NC(=O)c1cc(C#N)cnc1NCc1ccc(-c2ccn3ncnc(N)c23)cc1)c1ccc(F)cc1 [Example 174, 2-[4-(4-Amino-pyrrolo[2,1-f][1,2,4]triazin-5-yl)-benzylamino]-5-cyano-N-[(S)-1-(4-fluoro-phenyl)-ethyl]-nicotinamide]
- IC50 ([1]; inhibition of PDK1 in vitro): < 100 nM
- EC50 [2, 3]: < 1000 nM

SMILES: C[C@H](NC(=O)c1nc(C#N)cnc1NCc1ccc(-c2cnc3[nH]nc(NC(=O)C(C)(C)C)c3c2)cc1)c1ccc(F)c(F)c1 [Example 420, (S)-6-cyano-N-(1-(3,4-difluorophenyl)ethyl)-3-(4-(3-pivalamido-1H-pyrazolo[3,4-b]pyridin-5-yl)benzylamino)pyrazine-2-carboxamide]
- IC50 ([1]; inhibition of PDK1 in vitro): < 100 nM
- EC50 [2, 3]: 1000 to 10000 nM

SMILES: Nc1n[nH]c2ncc(-c3ccc(CNc4ncc(C(F)(F)F)cc4C(=O)Nc4ccc(F)c(F)c4)cc3)cc12 [Example 263, 2-(4-(3-amino-1H-pyrazolo [3,4-b]pyridin-5-yl)benzylamino)-N-(3,4-difluorophenyl)-5-(trifluoromethyl) nicotinamide]
- IC50 ([1]; inhibition of PDK1 in vitro): < 100 nM
- EC50 [2, 3]: < 1000 nM

SMILES: CNC(=O)c1cnc(NCc2ccc(-c3ccc4ncnc(N)c4c3)s2)c(C(=O)NCc2ccc(F)c(F)c2)c1 [Example 7.24.3, 2-({[5-(4-aminoquinazolin-6-yl)thiophen-2-yl]methyl}amino)-N^3-(3,4-difluorobenzyl)-N^5-methylpyridine-3,5-dicarboxamide]
- IC50 [1, 4]: < 100 nM
- EC50 [2, 5]: < 1000 nM

SMILES: C[C@H](NC(=O)c1cc(C#N)cnc1NCc1ccc(-c2cnc(N)c(-c3cccc(N)c3)n2)cc1)c1ccc(F)cc1 [Example 237, 2-{4-[5-Amino-6-(3-amino-phenyl)-pyrazin-2-yl]-benzylamino}-5-cyano-N-[(S)-1-(4-fluoro-phenyl)-ethyl]-nicotinamide]
- IC50 ([1]; inhibition of PDK1 in vitro): < 100 nM
- EC50 [2, 3]: < 1000 nM

Further lines, results first:

- IC50 [1, 4]: < 100 nM
- EC50 [2, 5]: < 1000 nM
SMILES: Nc1ncnc2ccc(-c3ccc(CNc4ncc(I)cc4C(=O)NCc4ccc(F)c(F)c4)s3)cc12 [Ex. 8.3, 2-{[5-(4-amino-quinazolin-6-yl)-thiophen-2-ylmethyl]-amino}-N-(3,4-difluoro-benzyl)-5-iodo-nicotinamide]

- IC50 [1, 4]: < 100 nM
- EC50 [2, 5]: 1000 to 10000 nM
SMILES: Cc1nc(/C=C2\C(=O)Nc3cc(/C=C/CNc4ncccc4C(=O)NCc4ccc(F)c(F)c4)ccc32)[nH]c1C [Example 15.13, N-(3,4-Difluoro-benzyl)-2-((E)-3-{3-[1-(4,5-dimethyl-1H-imidazol-2-yl)-meth-(Z)-ylidene]-2-oxo-2,3-dihydro-1H-indol-6-yl}-allylamino)-nicotinamide]

- IC50 [1, 4]: < 100 nM
- EC50 [2, 5]: < 1000 nM
SMILES: Nc1ncnc2ccc(-c3ccc(CNc4ncc(Br)cc4C(=O)NCc4ccc(F)c(F)c4)s3)cc12 [Ex. 8.9, 2-({[5-(4-aminoquinazolin-6-yl)thiophen-2-yl]methyl}amino)-N-(3,4-difluorobenzyl)-5-bromopyridine-3-carboxamide]

- IC50 [1, 4]: 100 to 1000 nM
- EC50 [2, 5]: 1000 to 10000 nM
SMILES: Nc1ncnc2ccc(-c3ccc(CNc4ncccc4C(=O)Nc4ccc(F)c(Cl)c4)s3)cc12 [Example 3.49, 2-({[5-(4-aminoquinazolin-6-yl)thiophen-2-yl]methyl}amino)-N-(3-chloro-4-fluorophenyl) pyridine-3-carboxamide (TFA salt)]

- IC50 [1, 4]: < 100 nM
- EC50 [2, 5]: < 1000 nM
SMILES: C[C@@H](c1ccc(F)c(F)c1)n1cnc2ccnc(NCc3ccc(-c4ccc5ncnc(N)c5c4)s3)c2c1=O [Example 7.10, 5-({[5-(4-aminoquinazolin-6-yl)thiophen-2-yl]methyl}amino)-3-[(1S)-1-(3,4-difluorophenyl)ethyl] pyrido[4,3-d]pyrimidin-4(3H)-one]

- IC50 [1, 4]: < 100 nM
- EC50 [2, 5]: < 1000 nM
SMILES: C[C@H](NC(=O)c1cccnc1NCc1ccc(-c2cnc3[nH]ncc3c2)cc1)c1ccc(F)c(F)c1 [Example 2.39, N-[(S)-1-(3,4-Difluoro-phenyl)-ethyl]-2-[4-(1H-pyrazolo[3,4-b]pyridin-5-yl)benzyl-amino]-nicotinamide]

- IC50 [1, 4]: > 5000 nM
- EC50 [2, 5]: > 10000 nM
SMILES: C[C@H](NC(=O)c1cccnc1NCc1ccc(-c2ccc3nccnc3c2)s1)c1ccc(F)c(F)c1 [Example 4.31]

- IC50 [1, 4]: < 100 nM
- EC50 [2, 5]: 1000 to 10000 nM
SMILES: O=C(NCc1ccc(F)c(F)c1)c1cccnc1NCc1ccc(-c2ccc3ncnc(N4CCC4)c3c2)s1 [Example 4.9, 2-(((5-(4-(azetidin-1-yl)quinazolin-6-yl)thiophen-2-yl)methyl)amino)-N-(3,4-difluorobenzyl)nicotinamide]
